Experimental data taken from ChEMBL document CHEMBL4765247, “Novel mouse GABA uptake inhibitors with enhanced inhibitory activity toward mGAT3/4 and their effect on pain threshold in mice” (Eur J Med Chem, 2020).

What was measured:
Format in all cases: cell-based
[1] = molecular target: Sodium- and chloride-dependent GABA transporter 1 (Homo sapiens, UniProt P30531); test: Inhibition of human […] expressed in tsA201 cells assessed as inhibition of [3H]GABA uptake by liquid scintillation method
[2] = molecular target: T1, Sodium- and chloride-dependent betaine transporter (Homo sapiens, UniProt P48065); test: Inhibition of human BGT1 expressed in tsA201 cells assessed as inhibition of [3H]GABA uptake by liquid scintillation method
T1 sequence (P48065 whole entry): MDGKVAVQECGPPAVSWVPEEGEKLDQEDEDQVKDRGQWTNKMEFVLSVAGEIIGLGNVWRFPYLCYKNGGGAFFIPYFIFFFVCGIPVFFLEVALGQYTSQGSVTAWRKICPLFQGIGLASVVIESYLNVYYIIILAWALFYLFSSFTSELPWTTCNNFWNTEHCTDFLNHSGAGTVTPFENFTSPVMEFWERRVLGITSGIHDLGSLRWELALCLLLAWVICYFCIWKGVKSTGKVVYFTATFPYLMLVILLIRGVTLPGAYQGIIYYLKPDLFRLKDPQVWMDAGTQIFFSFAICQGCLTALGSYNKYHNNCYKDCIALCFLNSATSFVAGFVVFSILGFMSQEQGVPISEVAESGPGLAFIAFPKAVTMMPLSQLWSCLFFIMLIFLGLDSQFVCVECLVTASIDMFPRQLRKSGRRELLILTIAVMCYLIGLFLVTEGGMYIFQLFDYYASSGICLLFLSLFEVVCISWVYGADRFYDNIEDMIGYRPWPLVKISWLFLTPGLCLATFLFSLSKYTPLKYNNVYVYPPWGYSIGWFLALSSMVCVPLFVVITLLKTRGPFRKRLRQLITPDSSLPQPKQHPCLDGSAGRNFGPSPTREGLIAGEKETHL

[3] = molecular target: T2, Sodium- and chloride-dependent GABA transporter 2 (Homo sapiens, UniProt Q9NSD5); test: Inhibition of human […] expressed in tsA201 cells assessed as inhibition of [3H]GABA uptake by liquid scintillation method
T2 sequence (Q9NSD5 whole entry): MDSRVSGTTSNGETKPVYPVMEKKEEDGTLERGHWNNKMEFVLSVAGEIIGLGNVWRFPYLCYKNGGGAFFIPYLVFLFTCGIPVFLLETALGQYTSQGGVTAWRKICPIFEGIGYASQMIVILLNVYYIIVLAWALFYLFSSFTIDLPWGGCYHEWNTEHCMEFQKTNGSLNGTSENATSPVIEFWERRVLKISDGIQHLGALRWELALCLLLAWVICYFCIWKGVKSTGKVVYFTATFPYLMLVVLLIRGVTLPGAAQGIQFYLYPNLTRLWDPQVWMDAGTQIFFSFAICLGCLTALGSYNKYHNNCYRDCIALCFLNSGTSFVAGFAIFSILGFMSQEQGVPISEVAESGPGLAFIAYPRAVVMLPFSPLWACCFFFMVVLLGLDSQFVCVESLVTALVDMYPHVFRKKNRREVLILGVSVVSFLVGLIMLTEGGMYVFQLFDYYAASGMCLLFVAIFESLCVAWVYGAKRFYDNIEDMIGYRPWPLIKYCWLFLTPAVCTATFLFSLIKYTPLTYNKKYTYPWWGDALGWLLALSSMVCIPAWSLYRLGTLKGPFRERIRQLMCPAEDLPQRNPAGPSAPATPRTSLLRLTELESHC

[4] = molecular target: T3, Sodium- and chloride-dependent GABA transporter 3 (Homo sapiens, UniProt P48066); test: Inhibition of human […] expressed in tsA201 cells assessed as inhibition of [3H]GABA uptake by liquid scintillation method
T3 sequence (P48066 whole entry): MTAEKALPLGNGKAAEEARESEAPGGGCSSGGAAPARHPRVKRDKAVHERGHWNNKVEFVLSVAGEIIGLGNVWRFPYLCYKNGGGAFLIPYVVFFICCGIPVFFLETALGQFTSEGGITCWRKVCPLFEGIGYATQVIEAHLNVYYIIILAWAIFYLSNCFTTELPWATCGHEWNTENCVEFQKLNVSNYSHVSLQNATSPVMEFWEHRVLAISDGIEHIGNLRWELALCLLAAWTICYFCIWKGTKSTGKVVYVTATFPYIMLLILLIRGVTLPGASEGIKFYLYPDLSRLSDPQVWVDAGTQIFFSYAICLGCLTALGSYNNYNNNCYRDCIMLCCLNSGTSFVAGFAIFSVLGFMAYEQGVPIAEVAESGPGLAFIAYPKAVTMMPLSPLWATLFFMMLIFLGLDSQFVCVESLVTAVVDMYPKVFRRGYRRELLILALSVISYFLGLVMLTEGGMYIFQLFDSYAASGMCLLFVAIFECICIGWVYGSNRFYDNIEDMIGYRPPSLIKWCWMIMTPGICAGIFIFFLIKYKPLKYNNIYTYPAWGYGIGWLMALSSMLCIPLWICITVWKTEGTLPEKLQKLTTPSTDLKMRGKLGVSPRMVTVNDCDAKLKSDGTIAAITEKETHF

Sodium- and chloride-dependent GABA transporter 1, sequence (P30531 whole entry): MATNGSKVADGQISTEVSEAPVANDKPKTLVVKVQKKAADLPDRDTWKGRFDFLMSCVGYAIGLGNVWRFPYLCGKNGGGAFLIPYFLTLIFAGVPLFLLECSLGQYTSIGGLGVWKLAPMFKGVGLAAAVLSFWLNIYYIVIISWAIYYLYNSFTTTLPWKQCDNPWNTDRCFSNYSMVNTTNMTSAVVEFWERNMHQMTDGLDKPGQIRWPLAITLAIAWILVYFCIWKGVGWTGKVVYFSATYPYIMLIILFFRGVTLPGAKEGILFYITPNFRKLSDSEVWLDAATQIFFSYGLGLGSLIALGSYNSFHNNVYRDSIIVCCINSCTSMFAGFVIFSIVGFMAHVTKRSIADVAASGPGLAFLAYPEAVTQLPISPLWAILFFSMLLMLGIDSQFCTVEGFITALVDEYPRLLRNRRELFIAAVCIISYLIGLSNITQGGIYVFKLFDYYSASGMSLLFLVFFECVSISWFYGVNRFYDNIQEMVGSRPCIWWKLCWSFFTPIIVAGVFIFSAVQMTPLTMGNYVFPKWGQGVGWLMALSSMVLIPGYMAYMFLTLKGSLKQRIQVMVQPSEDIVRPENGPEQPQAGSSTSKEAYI

NCC(N)C(=O)O (centres undefined)
IC50 [1]: > 1000 µM
IC50 [2]: 631 µM
IC50 [3]: 39.8 µM
IC50 [4]: 31.6 µM
